According to US20240156140A1, “AMIDE COMPOUNDS AND THEIR USE AS FLAVOR MODIFIERS” (Firmenich Incorporated, priority 2021, published 2024):
pEC50: −log10 of the molar value.

Target: T1, T1R umami taste receptor (Homo sapiens, UniProt Q7RTX0+Q7RTX1)
T1 sequence (Q7RTX1 21-841): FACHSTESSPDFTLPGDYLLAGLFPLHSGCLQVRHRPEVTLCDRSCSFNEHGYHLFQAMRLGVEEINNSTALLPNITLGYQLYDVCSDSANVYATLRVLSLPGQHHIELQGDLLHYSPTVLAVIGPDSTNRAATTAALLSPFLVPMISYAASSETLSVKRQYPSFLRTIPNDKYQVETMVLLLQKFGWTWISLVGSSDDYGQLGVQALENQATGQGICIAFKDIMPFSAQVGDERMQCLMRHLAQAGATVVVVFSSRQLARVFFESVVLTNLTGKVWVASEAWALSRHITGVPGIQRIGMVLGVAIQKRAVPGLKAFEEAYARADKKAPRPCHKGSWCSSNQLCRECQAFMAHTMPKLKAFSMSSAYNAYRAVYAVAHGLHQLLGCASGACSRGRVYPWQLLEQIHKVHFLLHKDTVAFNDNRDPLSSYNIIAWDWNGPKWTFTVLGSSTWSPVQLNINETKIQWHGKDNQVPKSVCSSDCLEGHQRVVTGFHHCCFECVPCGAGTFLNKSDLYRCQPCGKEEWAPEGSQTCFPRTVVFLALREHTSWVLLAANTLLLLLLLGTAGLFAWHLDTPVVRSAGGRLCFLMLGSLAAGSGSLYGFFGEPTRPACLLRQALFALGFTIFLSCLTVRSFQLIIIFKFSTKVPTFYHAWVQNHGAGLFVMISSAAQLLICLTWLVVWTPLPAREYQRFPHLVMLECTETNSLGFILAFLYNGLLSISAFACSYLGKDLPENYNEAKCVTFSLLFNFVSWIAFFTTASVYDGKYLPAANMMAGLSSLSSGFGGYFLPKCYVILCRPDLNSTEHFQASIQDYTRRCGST
T1 sequence (Q7RTX0 21-852): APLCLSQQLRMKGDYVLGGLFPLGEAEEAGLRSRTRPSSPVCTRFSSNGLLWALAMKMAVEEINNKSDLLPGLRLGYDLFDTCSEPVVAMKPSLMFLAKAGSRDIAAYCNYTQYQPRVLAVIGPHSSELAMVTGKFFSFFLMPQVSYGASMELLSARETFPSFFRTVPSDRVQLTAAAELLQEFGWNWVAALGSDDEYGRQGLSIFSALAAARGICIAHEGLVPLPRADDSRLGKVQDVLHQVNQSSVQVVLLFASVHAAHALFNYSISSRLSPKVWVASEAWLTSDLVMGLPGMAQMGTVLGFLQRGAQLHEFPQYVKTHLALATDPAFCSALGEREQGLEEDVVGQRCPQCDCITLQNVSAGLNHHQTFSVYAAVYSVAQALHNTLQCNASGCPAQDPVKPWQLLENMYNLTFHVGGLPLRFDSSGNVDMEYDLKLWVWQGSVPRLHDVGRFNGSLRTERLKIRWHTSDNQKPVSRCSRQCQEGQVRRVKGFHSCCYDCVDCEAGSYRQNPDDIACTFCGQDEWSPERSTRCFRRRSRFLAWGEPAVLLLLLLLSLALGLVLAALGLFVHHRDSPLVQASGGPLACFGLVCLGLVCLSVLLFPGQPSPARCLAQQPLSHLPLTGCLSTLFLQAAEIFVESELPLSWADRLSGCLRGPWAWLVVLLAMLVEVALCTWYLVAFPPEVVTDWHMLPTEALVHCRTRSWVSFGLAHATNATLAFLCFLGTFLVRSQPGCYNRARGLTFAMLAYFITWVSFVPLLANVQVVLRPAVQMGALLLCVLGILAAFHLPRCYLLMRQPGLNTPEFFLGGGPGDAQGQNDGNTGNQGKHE
Assay: in vitro cell-based assay, enhancement of MSG binding
Details: cells that express the T1R umami taste receptor
Description: Each of the compounds set forth in Table 2 were synthesized according to one of the general procedures set forth above in Example 1 or 2. Thereafter, the compounds were tested in an in vitro cell-based assay having cells that express the T1R umami taste receptor. Dose-binding curves were recorded and the EC50 was determined for enhancement of MSG binding. Table 2 sets forth the calculated EC50 values for certain tested compounds.

pEC50	SMILES
< 4.30	O=C(NCCC[C@H](NC(=O)c1ccccc1)C(=O)O)c1ccccc1 [Compound 101]
4.52	COC(=O)[C@H](CCCNC(=O)c1ccccc1)NC(=O)c1ccccc1 [Compound 102]
5.70	CCOC(=O)[C@H](CCCNC(=O)c1ccccc1)NC(=O)c1ccccc1 [Compound 103]
4.85	CCOC(=O)[C@H](CCCNC(=O)c1ccc(C)c(C)c1)NC(=O)c1ccc(C)c(C)c1 [Compound 104]
4.46	CCOC(=O)[C@H](CCCNC(=O)c1ccc2c(c1)OCO2)NC(=O)c1ccc2c(c1)OCO2 [Compound 105]
5.46	C/C=C(\C)C(=O)NCCC[C@H](NC(=O)c1ccccc1)C(=O)OC [Compound 106]
5.10	C/C=C(\C)C(=O)NCCC[C@H](NC(=O)c1ccccc1)C(=O)OCC [Compound 107]
5.60	C/C=C(\C)C(=O)NCCC[C@H](NC(=O)c1ccc(C)cc1)C(=O)OC [Compound 108]
5.82	C/C=C(\C)C(=O)NCCC[C@H](NC(=O)c1ccc(C)cc1)C(=O)OCC [Compound 109]
6.15	C/C=C(\C)C(=O)NCCC[C@H](NC(=O)c1ccc(OC)cc1)C(=O)OC [Compound 110]
6.40	C/C=C(\C)C(=O)NCCC[C@H](NC(=O)c1ccc(OC)cc1)C(=O)OCC [Compound 111]
> 7.00	C/C=C(\C)C(=O)NCCC[C@H](NC(=O)c1ccc(C)c(C)c1)C(=O)OC [Compound 112]
6.30	C/C=C(\C)C(=O)NCCC[C@H](NC(=O)c1ccc(C)c(C)c1)C(=O)OCC [Compound 113]
6.40	C/C=C(\C)C(=O)NCCC[C@H](NC(=O)c1cc(C)c(C)c(C)c1)C(=O)OC [Compound 114]
7.40	C/C=C(\C)C(=O)NCCC[C@H](NC(=O)c1cc(C)c(C)c(C)c1)C(=O)OCC [Compound 115]
6.30	C/C=C(\C)C(=O)NCCC[C@H](NC(=O)c1ccc2c(c1)OCO2)C(=O)OCC [Compound 121]
6.70	C/C=C(\C)C(=O)NCCC[C@H](NC(=O)/C=C/c1ccccc1)C(=O)OC [Compound 122]
6.22	C/C=C(\C)C(=O)NCCC[C@H](NC(=O)/C=C/c1ccccc1)C(=O)OCC [Compound 123]
6.30	C/C=C(\C)C(=O)NCCC[C@H](NC(=O)/C=C/c1ccccc1OC)C(=O)OC [Compound 124]
6.19	C/C=C(\C)C(=O)NCCC[C@H](NC(=O)/C=C/c1ccc(OC)cc1)C(=O)OC [Compound 128]
7.22	C/C=C(\C)C(=O)NCCC[C@H](NC(=O)/C=C/c1ccc(OC)cc1)C(=O)OCC [Compound 129]
7.00	C/C=C(\C)C(=O)NCCC[C@H](NC(=O)/C=C/c1ccc(OC)cc1OC)C(=O)OC [Compound 132]
6.40	C/C=C(\C)C(=O)NCCC[C@H](NC(=O)/C=C/c1ccc(OC)cc1OC)C(=O)OCC [Compound 133]
